Experimental data published in ChEMBL document CHEMBL1147283, “Bullatacin and bullatacinone: two highly potent bioactive acetogenins from Annona bullata” (J Nat Prod, 1989).
≈ marks a conversion by molar mass, not a printed value. Calls of active or inactive are those of the source. The rule behind the calls is not given here.

Tests used:
[1] = Toxicity in brine shrimp; format: organism-based; settings: artemia, in vivo
[2] = (§1) Cytotoxicity against human 9KB cells; format: functional
A549 = assay: Cytotoxicity against human A549 cells; format: functional, cell-based; settings: for EC50: Homo sapiens, A549, read-out: ED50 (the source's name)
[3] = (§2) Cytotoxicity against mouse 9PS cells; format: functional; settings: read-out: ED50 (the source's name)
HT-29 = assay: Cytotoxicity against human HT-29 cells; format: functional, cell-based
Aedes aegypti [4] = assay: Pesticidal activity against Aedes aegypti larvae at 10 ppm relative to control; format: functional
Spodoptera eridania [5] = assay: Pesticidal activity against Spodoptera eridania at 100 ppm relative to control; format: functional
Spodoptera eridania [6] = assay: Pesticidal activity against Spodoptera eridania at 400 ppm relative to control; format: functional
[7] = test system: Diabrotica undecimpunctata; assay: Pesticidal activity against Diabrotica undecimpunctata howardi at 6 ppm relative to control; format: functional
Aedes aegypti [8] = assay: Pesticidal activity against Aedes aegypti larvae at 0.5 ppm relative to control; format: functional
Aphis gossypii [9] = assay: Pesticidal activity against Aphis gossypii at 400 ppm relative to control; format: functional
Tetranychus urticae [10] = assay: Pesticidal activity against Tetranychus urticae at 400 ppm relative to control; format: functional
Tetranychus urticae [11] = assay: Pesticidal activity against Tetranychus urticae at 100 ppm relative to control; format: functional
[12] = test system: Diabrotica undecimpunctata; assay: Pesticidal activity against Diabrotica undecimpunctata howardi at 24 ppm relative to control; format: functional
Aphis gossypii [13] = assay: Pesticidal activity against Aphis gossypii at 100 ppm relative to control; format: functional
Tetranychus urticae [14] = assay: Pesticidal activity against Tetranychus urticae at 10 ppm relative to control; format: functional
Aedes aegypti [15] = assay: Pesticidal activity against Aedes aegypti larvae at 1 ppm relative to control; format: functional
Aphis gossypii [16] = assay: Pesticidal activity against Aphis gossypii at 10 ppm relative to control; format: functional
[17] = Displacement of radiolabeled ligand form protein kinase C at 10 uM
9KB = assay: as §1; format: functional
Mus musculus = species on record: Mus musculus; assay: as §2; format: functional

## C=C1C[C@@]23CC[C@H]4[C@@](C)(CCC[C@]4(C)C(=O)O)[C@@H]2CCC1C3
[1]
  LC50: 0.87 µg/mL (≈ 2.88 µM)

## CCCCCCCCCC[C@H](OC(C)=O)[C@H]1CC[C@H]([C@H]2CC[C@H]([C@@H](CCCCCCCCCC[C@H](CC3=C[C@H](C)OC3=O)OC(C)=O)OC(C)=O)O2)O1 [BULLATACIN TRIACETATE]
[2]
  ED50: 6.85 ×10⁻⁷ ug/ml
A549
  EC50: 0.002 µg/mL
[3]
  EC50: 0.00389 µg/mL
[1]
  LC50: 5.7 µg/mL
HT-29; Homo sapiens, HT-29, read-out: ED50 (the source's name)
  EC50: > 0.1 µg/mL

## CCCCCCCCCC[C@H](OC(C)=O)[C@H]1CC[C@H]([C@H]2CC[C@H]([C@@H](CCCCCCCCCC[C@@H]3C[C@@H](CC(C)=O)C(=O)O3)OC(C)=O)O2)O1 [BULLATACINONE DIACETATE]
[2]; Homo sapiens, 9KB, read-out: ED50 (the source's name)
  EC50: 0.005 µg/mL
A549
  EC50: 0.028 µg/mL
[3]
  EC50: 0.0422 µg/mL
[1]
  LC50: > 10 µg/mL
HT-29
  ED50: 1 ×10⁻¹ umol/L

## CCCCCCCCCC[C@H](O)[C@H]1CC[C@H]([C@H]2CC[C@H]([C@H](O)CCCCCCCCCC[C@@H]3CC(CC(C)=O)C(=O)O3)O2)O1 (stereo partly specified) [BULLATACINONE]
Aedes aegypti [4]
  Activity: 0%
[2]
  ED50: <1 ×10⁻¹² ug/ml
Spodoptera eridania [5]
  Activity: 0%
A549
  EC50: 0.001 µg/mL (≈ 0.00161 µM)
Spodoptera eridania [6]
  Activity: 0%
[7]
  Activity: 0%
Aedes aegypti [8]
  Activity: 0%
[3]
  EC50: 0.00423 µg/mL (≈ 0.00679 µM)
Aphis gossypii [9]
  Activity: 0%
Tetranychus urticae [10]
  Activity: 0%
[1]
  LC50: 0.003 µg/mL (≈ 0.00482 µM)
Tetranychus urticae [11]
  Activity: 0%
HT-29
  ED50: 5 ×10⁻¹² ug/ml
[12]
  Activity: 0%
Aphis gossypii [13]
  Activity: 0%
Tetranychus urticae [14]
  Activity: 0%
Aedes aegypti [15]
  Activity: 0%
Aphis gossypii [16]
  Activity: 0%

## CCCCCCCCCC[C@@H](O)[C@@H]1CC[C@@H]([C@@H]2CC[C@@H]([C@H](O)CCCCCCCCCC(O)CC3=CC(C)OC3=O)O2)O1 (stereo partly specified) [BULLATACIN]
[17]
  Activity: 7%

## CCCCCCCCCC[C@H](O)[C@H]1CC[C@H]([C@H]2CC[C@H]([C@H](O)CCCCCCCCCC[C@@H](O)CC3C[C@H](C)OC3=O)O2)O1 (stereo partly specified) [DIHYDROBULLATACIN]
A549
  ED50: <1 ×10⁻⁶ ug/ml
[1]
  LC50: 0.0145 µg/mL (≈ 0.0232 µM)
HT-29
  ED50: 3.33 ×10⁻⁵ ug/ml

## O=C1c2ccccc2-c2c3c(cc4ccnc1c24)OCO3 [LIRIODENINE]
9KB
  Activity: inactive
Mus musculus
  Activity: inactive
[1]
  LC50: 1.1 µg/mL (≈ 4 µM)
